# Assay results taken from US11840686B2, “Modulation of prekallikrein (PKK) expression” (Ionis Pharmaceuticals, Inc., priority 2013, dated 2023).
# Strand notation (5' to 3'): a small letter for the sugar, then the base; units joined by * are phosphorothioate-linked, units joined directly phosphodiester-linked; [ ] holds rarer units or linkages, { } end groups; capitals alone tell only the bases. e = 2'-O-(2-methoxyethyl) (MOE); [5mC] = 5-methylcytosine; d = 2'-deoxy (DNA)
# Legend:
# human PKK mRNA = experiment: Antisense inhibition of human PKK mRNA in HepaRG cells, 1,000 nM, MOE/deoxy/cEt oligonucleotides (Example 3); assay type: cell-based
# Method in brief: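 Readout is percent PKK mRNA reduction against untreated controls, by real-time PCR (RTS3454) adjusted for total RNA via RIBOGREEN. Oligonucleotides, phosphorothioate gapmers of 16 nucleosides with cEt, MOE and deoxy sugars, were delivered at 1,000 nM by electroporation to 20,000 HepaRG cells/well for roughly 24 h.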
# thrombus formation = experiment: FeCl3 induced mesenteric thrombosis model, platelet aggregation and fibrin formation (Example 21); assay type: in vivo, mouse; conditions: Swiss-Webster mice; for Fibrin formation, fluorescent intensity / Platelet aggregation, fluorescent intensity: 80 mg/kg/wk
# Protocol: ISIS 482584 was evaluated in the FeCl3 induced mesenteric thrombosis mouse model.
# A group of 6-8 Swiss-Webster mice was treated with 40 mg/kg of ISIS 482584, administered subcutaneously twice a week for 3 weeks (weekly dose of 80 mg/kg). A control group of 6 Swiss-Webster mice was treated with PBS, administered subcutaneously twice a week for 3 weeks. Two days after the last dose of antisense oligonucleotide or PBS, mice from all groups were anesthetized with 75 mg/kg ketamine mixed with 25 mg/kg xylazine, administered by subcutaneous injection.
# Rhodamine 6G dye at a dosage of 5 mg/kg was injected subcutaneously to stain platelets. Alexa-647-labeled anti-fibrinogen antibody at a dosage of 1 mg/kg was injected via tail vein injection to stain fibrin. The abdomen was opened by a middle incision. The visceral mesentery was spread on a glass coverslip and the mesenteric arterioles (70-120 μm) were located by observation under a microscope. Thrombus formation was induced by applying of cotton threads (2×0.3 mm) pre-saturated with 6% FeCl3 solution directly on the target vessel. After three minutes of exposure, the thread was removed and the color intensities of both the dyes were recorded by fluorescent microscopy (Olympus FluoView 1000 confocal laser scanning microscope) with appropriate filters for 70 min.
# The results for platelet aggregation in the control and treatment groups are presented in Table 83, expressed in arbitrary units (a.u.). […] The results for fibrin formation in the control and treatment groups are presented in Table 84, also expressed in arbitrary units (a.u.).
# C1-INH mRNA = C1-INH mRNA in liver of mice treated with ISIS 461756 (Example 18); assay type: in vivo, mouse; conditions: liver; all groups ISIS 461756 25 mg/kg/wk; pretreatment PBS or oligonucleotide 80 mg/kg/wk sc 3 weeks
# Protocol: Vascular permeability induced by ISIS 461756, an antisense oligonucleotide which targets murine C1 inhibitor mRNA, increases vascular permeability in mice and replicates the pathology of hereditary angioedema. The effect of ISIS 482584 on this model was evaluated.
# One group of 8 mice was treated with 40 mg/kg ISIS 482584 administered subcutaneously twice a week for 3 weeks (weekly dose of 80 mg/kg). A second group of 8 mice was treated with 40 mg/kg of the control oligonucleotide, ISIS 141923, administered subcutaneously twice a week for 3 weeks (weekly dose of 80 mg/kg). A third group of 8 mice was treated with PBS administered subcutaneously twice a week for 3 weeks. On day 14, all the groups were treated with 12.5 mg/kg ISIS 461756 administered subcutaneously twice a week for 3 weeks (weekly dose of 25 mg/kg). A control group of mice was treated with PBS administered subcutaneously twice a week for 3 weeks but was not administered ISIS 461756.
# At the end of the treatment period, all the groups were injected with 30 mg/kg of Evans Blue solution into the tail vein. The mice were sacrificed 30 min after the Evans Blue solution administration and colons, feet, ears, and intestines were harvested. The liver was also harvested for RNA analysis.
# RNA was isolated from the liver for RT-PCR analysis of C1-INH and PKK mRNAs. The primer probe set for C1-INH is RTS3218 (forward sequence […], designated herein as SEQ ID NO: 2234; reverse sequence […], designated herein as SEQ ID NO: 2235; probe sequence […], designated herein as SEQ ID NO: 2236). The primer probe set for PKK is RTS3287 (forward sequence […], designated herein as SEQ ID NO: 2237; reverse sequence […], designated herein as SEQ ID NO: 2238; probe sequence […], designated herein as SEQ ID NO: 2239). The results are presented in Table 79 as percent inhibition compared to the PBS control not treated with ISIS 461756.
# [1] = C-reactive protein and complement C3 levels in cynomolgus monkeys (Example 8); conditions: cynomolgus monkey plasma, 40 mg/kg sc
# Protocol: Prior to the study, the monkeys were kept in quarantine for a 30-day period, during which the animals were observed daily for general health. The monkeys were 2-4 years old and weighed between 2 and 4 kg. Ten groups of four randomly assigned male cynomolgus monkeys each were injected subcutaneously with ISIS oligonucleotide or PBS. PBS solution or ISIS oligonucleotides at a dose of 40 mg/kg were administered initially with a loading regimen consisting of four doses on the first week of the study (days 1, 3, 5, and 7), followed by a maintenance regimen consisting of once weekly administration starting on Day 14 (weeks 2 to 13). Subcutaneous injections were performed in clock-wise rotations at 4 sites on the back; one site per dose. The injection sites were delineated by tattoo, while sedated using ketamine, and were separated by a minimum of 3 cm.
# To evaluate any inflammatory effect of ISIS oligonucleotides in cynomolgus monkeys, the monkeys were fasted overnight. Approximately, 1.5 mL of blood samples were collected from all the study groups. Blood was collected in tubes without anticoagulant for serum separation. The tubes were kept at room temperature for a minimum of 90 min and then centrifuged at 3,000 rpm for 10 min. C-reactive protein (CRP), which is synthesized in the liver and which serves as a marker of inflammation, was measured using a Toshiba 120FR NEO chemistry analyzer (Toshiba Co., Japan). Complement C3 was also measured similarly, and the data is presented as a percentage of baseline values.
substance,measurement,setting,value
531231 (eT*eA*eT*e[5mC]*eA*d[5mC]*dT*dG*dT*dA*d[5mC]*dT*dA*dG*dT*eT*eT*e[5mC]*e[5mC]*eT) [compound 531231],% inhibition,"human PKK mRNA; HepaRG cells, 1,000 nM antisense oligonucleotide, Table 29",46%
same,% inhibition,"human PKK mRNA; HepaRG cells, electroporation with 1,000 nM antisense oligonucleotide, approx. 24 hours, PKK mRNA by RT-PCR (RTS3454), relative to untreated control cells, Table 25 experiment",19%
same,% inhibition,"human PKK mRNA; HepaRG cells, electroporation with 1,000 nM antisense oligonucleotide, approx. 24 hours, PKK mRNA by RT-PCR (RTS3454), relative to untreated control cells, Table 26 experiment",42%
same,% inhibition,"human PKK mRNA; HepaRG cells, electroporation with 1,000 nM antisense oligonucleotide, approximately 24 hours, primer probe set RTS3454, relative to untreated control cells, experiment of Table 23",16%
same,% inhibition,"human PKK mRNA; HepaRG cells, electroporation with 1,000 nM antisense oligonucleotide, approximately 24 hours, primer probe set RTS3454, relative to untreated control cells, experiment of Table 24",0%
same,% inhibition,"human PKK mRNA; PKK mRNA, HepaRG cells, 1,000 nM antisense oligonucleotide, Table 31",48%
same,% inhibition,"human PKK mRNA; Table 21 experiment, HepaRG cells, electroporation with 1,000 nM antisense oligonucleotide, approx. 24 hours, PKK mRNA by RT-PCR (RTS3454), relative to untreated control cells",62%
same,% inhibition,"human PKK mRNA; Table 22 experiment, HepaRG cells, electroporation with 1,000 nM antisense oligonucleotide, approx. 24 hours, PKK mRNA by RT-PCR (RTS3454), relative to untreated control cells",75%
same,% inhibition,"human PKK mRNA; Table 27, HepaRG cells, 1,000 nM antisense oligonucleotide, human PKK mRNA",72%
same,% inhibition,"human PKK mRNA; Table 28, HepaRG cells, 1,000 nM antisense oligonucleotide, human PKK mRNA",46%
same,% inhibition,"human PKK mRNA; Table 30, human PKK mRNA, HepaRG cells, 1,000 nM antisense oligonucleotide",46%
"ISIS 482584: 5-10-5 MOE gapmer targeting murine PKK, GGCATATTGGTTTTTGGAAT; SEQ ID NO: 2244 (antisense eG*eG*e[5mC]*eA*eT*dA*dT*dT*dG*dG*dT*dT*dT*dT*dT*eG*eG*eA*eA*eT)","Fibrin formation, fluorescent intensity",thrombus formation; time 752 sec,54 a.u.
same,"Platelet aggregation, fluorescent intensity",thrombus formation; time 752 sec,74 a.u.
same,"Fibrin formation, fluorescent intensity",thrombus formation; time 1018 sec,7 a.u.
same,"Platelet aggregation, fluorescent intensity",thrombus formation; time 1018 sec,11 a.u.
same,"Fibrin formation, fluorescent intensity",thrombus formation; time 1284 sec,1 a.u.
same,"Platelet aggregation, fluorescent intensity",thrombus formation; time 1284 sec,7 a.u.
same,"Fibrin formation, fluorescent intensity",thrombus formation; time 1550 sec,10 a.u.
same,"Platelet aggregation, fluorescent intensity",thrombus formation; time 1550 sec,0 a.u.
same,"Fibrin formation, fluorescent intensity",thrombus formation; time 1815 sec,16 a.u.
same,"Platelet aggregation, fluorescent intensity",thrombus formation; time 1815 sec,0 a.u.
same,"Fibrin formation, fluorescent intensity",thrombus formation; time 2081 sec,15 a.u.
same,"Platelet aggregation, fluorescent intensity",thrombus formation; time 2081 sec,0 a.u.
same,"Fibrin formation, fluorescent intensity",thrombus formation; time 2347 sec,61 a.u.
same,"Platelet aggregation, fluorescent intensity",thrombus formation; time 2347 sec,0 a.u.
same,"Fibrin formation, fluorescent intensity",thrombus formation; time 2613 sec,88 a.u.
same,"Platelet aggregation, fluorescent intensity",thrombus formation; time 2613 sec,38 a.u.
same,"Fibrin formation, fluorescent intensity",thrombus formation; time 2879 sec,141 a.u.
same,"Platelet aggregation, fluorescent intensity",thrombus formation; time 2879 sec,148 a.u.
same,"Fibrin formation, fluorescent intensity",thrombus formation; time 3144 sec,150 a.u.
same,"Platelet aggregation, fluorescent intensity",thrombus formation; time 3144 sec,129 a.u.
same,"Fibrin formation, fluorescent intensity",thrombus formation; time 3410 sec,173 a.u.
same,"Platelet aggregation, fluorescent intensity",thrombus formation; time 3410 sec,169 a.u.
same,"Fibrin formation, fluorescent intensity",thrombus formation; time 3676 sec,160 a.u.
same,"Platelet aggregation, fluorescent intensity",thrombus formation; time 3676 sec,131 a.u.
same,"Fibrin formation, fluorescent intensity",thrombus formation; time 3944 sec,128 a.u.
same,"Platelet aggregation, fluorescent intensity",thrombus formation; time 3944 sec,87 a.u.
same,fibrin formation,"thrombus formation; 80 mg/kg/week, vs PBS",Fibrin formation was reduced
same,platelet aggregation,"thrombus formation; 80 mg/kg/week, vs PBS",Platelet aggregation was reduced
same,Percent inhibition of C1-INH mRNA expression compared to the untreated PBS control,C1-INH mRNA,77%
Tes Ges mCes Aes Aes Gds Tds mCds Tds mCds Tds Tds Gds Gds mCds Aes Aes Aes mCes Ae [ISIS 546254],C3 (% of baseline),[1],61 % of baseline
same,CRP,[1],0.8 mg/dL
